From patent US9012655B2, “Antimicrobial/adjuvant compounds and methods” (Denouamed, Inc., priority 2011, dated 2015)
In brackets after ≈: the same amount, converted by molar mass.

Legend:
Experiment in all cases: MIC panel of challenge pathogens (CLSI)
Type in all cases: cell-based
[1] = system: Enterococcus faecium ATCC700221; conditions: Enterococcus faecium ATCC700221
Experimental: (§1) The inocula for each bacterial strain were prepared by picking 5-10 distinct colonies from the culture plates and suspending them in the appropriate broth as per Clinical and Laboratory Standards Institute (CLSI) guidelines M07-A8, M24-A or M11-A7 as appropriate. The inoculum was resuspended by vigorous shaking on a vortex mixer for 15 s. The turbidity was then adjusted to McFarland standard 0.5 ([…]). The inoculum was further diluted in the appropriate media for MIC tests to give a final inoculum in each well of 2-8×10^5 CFU/ml. MICs were tested in the appropriate broth in accordance with the appropriate CLSI guidelines.
(§2) A stock solution of each compound was prepared at a concentration of 1.28 g/L in DMSO. The stock was further diluted in the appropriate media to give a top starting concentration of 128 mg/L in the assay. 100 μL of the appropriate media, as per CLSI guidelines, was dispensed into each well in columns 2-12. 200 μL of the each compound solution (at 256 mg/L) was dispensed into each well in column 1. 100 μL aliquots were pipetted from column 1 wells and dispensed into column 2 with a multichannel pipette (±2% coefficient of variation) thus diluting two-fold. 100 μL samples were then pipetted from column 2 wells and dispensed into column 3. The process was repeated through to column 10. The final 100 μL of diluted drug from column 10 was then discarded. Row 11 acted as a positive control (no compound, but organisms added), Row 12 acted as a negative control (no compound, and no organisms added).
(§3) 100 μL of the appropriate inoculum suspension in the appropriate media, as per CLSI guidelines, was added to the appropriate wells. […] All plates were incubated in the dark under aerobic or anaerobic conditions at 30-37° C. for 24-48 hours, according to the appropriate CLSI guideline. Plates were read visually 24-48 hours post inoculation. Endpoints of 100% inhibition were determined (CLSI interpretation endpoints following visual examination).
(§4) MIC50, MIC80, and 100% inhibition results are reported below in μg/mL in the following Tables, indicating each compound tested against a given species and strain: […]

[2] = system: Staphylococcus aureus AUR60 7005; conditions: AUR607005, Staphylococcus aureus AUR60 7005
Experimental: as §1, §2, §3, §4

[3] = system: Staphylococcus aureus EUP MRSA002; conditions: EUPMRSA002, Staphylococcus aureus EUP MRSA002
Experimental: as §1, §2, §3, §4

Bacillus cereus NCTC6349 = conditions: Bacillus cereus NCTC6349
Experimental: as §1, §2, §3, §4

[4] = system: Enterococcus faecalis ATCC29212; conditions: Enterococcus faecalis ATCC29212
Experimental: as §1, §2, §3, §4

[5] = system: Staphylococcus aureus EUP SAU040; conditions: EUPSAU040, Staphylococcus aureus EUP SAU040
Experimental: as §1, §2, §3, §4

[6] = system: Enterococcus faecalis ATCC51299; conditions: Enterococcus faecalis ATCC51299
Experimental: as §1, §2, §3, §4

[7] = system: Staphylococcus aureus NRS384; conditions: Staphylococcus aureus NRS384
Experimental: as §1, §2, §3, §4

[8] = system: Staphylococcus aureus EUP MRSA004; conditions: EUPMRSA004, Staphylococcus aureus EUP MRSA004
Experimental: as §1, §2, §3, §4

[9] = system: Staphylococcus aureus AUR58 7005; conditions: AUR587005, Staphylococcus aureus AUR58 7005
Experimental: as §1, §2, §3, §4

[10] = system: Staphylococcus aureus NRS382; conditions: Staphylococcus aureus NRS382
Experimental: as §1, §2, §3, §4

[11] = system: Staphylococcus epidermidis NRS122; conditions: Staphylococcus epidermidis NRS122
Experimental: as §1, §2, §3, §4

[12] = system: Staphylococcus aureus NRS2 (ATCC700698); conditions: Staphylococcus aureus NRS2 (ATCC700698)
Experimental: as §1, §2, §3, §4

[13] = system: Staphylococcus aureus AUR131 007035; conditions: AUR131007035, Staphylococcus aureus AUR131 007035
Experimental: as §1, §2, §3, §4

[14] = system: Staphylococcus aureus NRS1 (ATCC700699); conditions: Staphylococcus aureus NRS1 (ATCC700699)
Experimental: as §1, §2, §3, §4

[15] = system: Staphylococcus aureus NRS383; conditions: Staphylococcus aureus NRS383
Experimental: as §1, §2, §3, §4

[16] = system: Staphylococcus epidermidis NRS7; conditions: Staphylococcus epidermidis NRS7
Experimental: as §1, §2, §3, §4

[17] = system: Staphylococcus aureus ATCC43300; conditions: Staphylococcus aureus ATCC43300
Experimental: as §1, §2, §3, §4

[18] = system: Staphylococcus aureus AUR59 7005; conditions: AUR597005, Staphylococcus aureus AUR59 7005
Experimental: as §1, §2, §3, §4

Work on Cc1cc(Cl)ccc1-c1cc(-c2nnn[nH]2)sc1-c1ccc(Cl)cc1C [DNM0488, 5-(4,5-Bis(4-chloro-2-methylphenyl)thiophen-2-yl)-1H-tetrazole] yielded an MIC ([1]; read-out: 100% inhibition) of 0.5 µg/mL (≈ 1.25 µM), an MIC50 ([1]; read-out: MIC50 (50%)) of 0.25 µg/mL (≈ 0.623 µM) and an MIC80 ([1]; read-out: MIC80 (80%)) of 0.25 µg/mL (≈ 0.623 µM). For the same compound, the MIC ([2]; read-out: 100% inhibition) was 0.5 µg/mL (≈ 1.25 µM), the MIC50 ([2]; read-out: MIC50 (50%)) was 0.5 µg/mL (≈ 1.25 µM) and the MIC80 ([2]; read-out: MIC80 (80%)) was 0.5 µg/mL (≈ 1.25 µM). For the same compound, the MIC ([3]; read-out: 100% inhibition) was 1 µg/mL (≈ 2.49 µM), the MIC50 ([3]; read-out: MIC50 (50%)) was 0.5 µg/mL (≈ 1.25 µM) and the MIC80 ([3]; read-out: MIC80 (80%)) was 1 µg/mL (≈ 2.49 µM). For the same compound, the MIC (Bacillus cereus NCTC6349; read-out: 100% inhibition) was ≤ 0.25 µg/mL, the MIC50 (Bacillus cereus NCTC6349; read-out: MIC50 (50%)) was ≤ 0.25 µg/mL and the MIC80 (Bacillus cereus NCTC6349; read-out: MIC80 (80%)) was ≤ 0.25 µg/mL. It also gave an MIC ([4]; read-out: 100% inhibition) of 0.5 µg/mL (≈ 1.25 µM), an MIC50 ([4]; read-out: MIC50 (50%)) of 0.5 µg/mL (≈ 1.25 µM) and an MIC80 ([4]; read-out: MIC80 (80%)) of 0.5 µg/mL (≈ 1.25 µM). It also gave an MIC ([5]; read-out: 100% inhibition) of 0.5 µg/mL (≈ 1.25 µM), an MIC50 ([5]; read-out: MIC50 (50%)) of 0.5 µg/mL (≈ 1.25 µM) and an MIC80 ([5]; read-out: MIC80 (80%)) of 0.5 µg/mL (≈ 1.25 µM). For the same compound, the MIC ([6]; read-out: 100% inhibition) was 0.5 µg/mL (≈ 1.25 µM), the MIC50 ([6]; read-out: MIC50 (50%)) was 0.5 µg/mL (≈ 1.25 µM) and the MIC80 ([6]; read-out: MIC80 (80%)) was 0.5 µg/mL (≈ 1.25 µM). The MIC ([7]; read-out: 100% inhibition) was 0.5 µg/mL (≈ 1.25 µM), the MIC50 ([7]; read-out: MIC50 (50%)) was 0.5 µg/mL (≈ 1.25 µM) and the MIC80 ([7]; read-out: MIC80 (80%)) was 0.5 µg/mL (≈ 1.25 µM). The MIC ([8]; read-out: 100% inhibition) was 0.5 µg/mL (≈ 1.25 µM), the MIC50 ([8]; read-out: MIC50 (50%)) was 0.5 µg/mL (≈ 1.25 µM) and the MIC80 ([8]; read-out: MIC80 (80%)) was 0.5 µg/mL (≈ 1.25 µM). The MIC ([9]; read-out: 100% inhibition) was 1 µg/mL (≈ 2.49 µM), the MIC50 ([9]; read-out: MIC50 (50%)) was 0.5 µg/mL (≈ 1.25 µM) and the MIC80 ([9]; read-out: MIC80 (80%)) was 0.5 µg/mL (≈ 1.25 µM). The MIC ([10]; read-out: 100% inhibition) was 0.5 µg/mL (≈ 1.25 µM), the MIC50 ([10]; read-out: MIC50 (50%)) was 0.5 µg/mL (≈ 1.25 µM) and the MIC80 ([10]; read-out: MIC80 (80%)) was 0.5 µg/mL (≈ 1.25 µM). It also gave an MIC ([11]; read-out: 100% inhibition) of 2 µg/mL (≈ 4.98 µM), an MIC50 ([11]; read-out: MIC50 (50%)) of 1 µg/mL (≈ 2.49 µM) and an MIC80 ([11]; read-out: MIC80 (80%)) of 2 µg/mL (≈ 4.98 µM). It also gave an MIC ([12]; read-out: 100% inhibition) of 0.5 µg/mL (≈ 1.25 µM), an MIC50 ([12]; read-out: MIC50 (50%)) of 0.5 µg/mL (≈ 1.25 µM) and an MIC80 ([12]; read-out: MIC80 (80%)) of 0.5 µg/mL (≈ 1.25 µM). It also gave an MIC ([13]; read-out: 100% inhibition) of 0.5 µg/mL (≈ 1.25 µM), an MIC50 ([13]; read-out: MIC50 (50%)) of 0.5 µg/mL (≈ 1.25 µM) and an MIC80 ([13]; read-out: MIC80 (80%)) of 0.5 µg/mL (≈ 1.25 µM). For the same compound, the MIC ([14]; read-out: 100% inhibition) was ≤ 0.25 µg/mL, the MIC50 ([14]; read-out: MIC50 (50%)) was ≤ 0.25 µg/mL and the MIC80 ([14]; read-out: MIC80 (80%)) was ≤ 0.25 µg/mL. It also gave an MIC ([15]; read-out: 100% inhibition) of 0.5 µg/mL (≈ 1.25 µM), an MIC50 ([15]; read-out: MIC50 (50%)) of 0.5 µg/mL (≈ 1.25 µM) and an MIC80 ([15]; read-out: MIC80 (80%)) of 0.5 µg/mL (≈ 1.25 µM). For the same compound, the MIC ([16]; read-out: 100% inhibition) was 0.5 µg/mL (≈ 1.25 µM), the MIC50 ([16]; read-out: MIC50 (50%)) was 0.25 µg/mL (≈ 0.623 µM) and the MIC80 ([16]; read-out: MIC80 (80%)) was 0.25 µg/mL (≈ 0.623 µM). For the same compound, the MIC ([17]; read-out: 100% inhibition) was 0.5 µg/mL (≈ 1.25 µM), the MIC50 ([17]; read-out: MIC50 (50%)) was 0.5 µg/mL (≈ 1.25 µM) and the MIC80 ([17]; read-out: MIC80 (80%)) was 0.5 µg/mL (≈ 1.25 µM). The MIC ([18]; read-out: 100% inhibition) was 0.5 µg/mL (≈ 1.25 µM), the MIC50 ([18]; read-out: MIC50 (50%)) was 0.5 µg/mL (≈ 1.25 µM) and the MIC80 ([18]; read-out: MIC80 (80%)) was 0.5 µg/mL (≈ 1.25 µM).
